From patent US12643867B2, “Compositions and uses thereof” (University of Virginia Patent Foundation, priority 2017, dated 2026) come the findings set out here.

Test [1] concerns the target T1, recombinant DGKα (Rattus norvegicus, UniProt P51556).
T1 construct: expressed in transfected cells; host or cells: HEK293T (SILAC HEK293T for LC-MS)
In words: Gel-based ATP acyl phosphate chemical proteomic assay. Format: binding. Particulars: compounds 100 μM (ATP 1 mM; RF001 at indicated concentrations), 30 min; probe 10 μM. The procedure: Cell pellets were resuspended in kinase buffer (Dulbecco's PBS (DPBS, Hyclone), 20 mM MgCl2, EDTA-free protease inhibitors (Pierce)) and then lysed by sonication (3×1 sec pulse, 20% amplitude). The cell lysates were then subjected to centrifugation (100,000×g, 45 min at 4° C.) to isolate the cytosolic fraction in the supernatant and the membrane fraction as a pellet. The membrane pellet was resuspended in kinase buffer by sonication. […] The only exception was experiments involving DGKE; recombinant DGKE protein was most prominently expressed in the membrane fraction and so this fraction was utilized to study DGKE enzyme (see FIG. 8). Protein concentrations were measured using the Bio-Rad DC protein assay. Samples were stored at −80° C. until use.
Proteome concentration was adjusted to 2 mg/mL in kinase buffer. Proteomes were first pre-treated with compound (0.6 μL, 50× stock in DMSO) mixed with gentle flicking, and incubated for 30 min at 25° C. in a microfuge tube (30 μL reaction volume). […] Reactions were then quenched with 10 AL of 4×SDS-PAGE loading buffer. Protein samples (15 μL) were loaded onto 4-20% TGX Stain-Free Protein Midi Gel and resolved by SDS-PAGE at 150V for 55 min. Proteins were then transferred to a nitrocellulose blot by Bio-Rad Trans-Blot Turbo Transfer System (25V. 10 min) to enhance sensitivity. The nitrocellulose blot was then incubated in blocking solution (30 mL, 3% BSA in TBS-T) for 1 h at 25° C. with gentle shaking. The blot was then transferred immediately to antibody solution (30 mL, 5% BSA in ddH2O with 0.1% Tween20 and 1:3000 Streptavidin DyLight 550) and incubated for 2 h at 25° C. with gentle shaking. The blot was then rinsed 5 times for 5 min in TBS-T. and then transferred into ddH2O. The blot was then imaged by in-blot fluorescence scanning on a ChemiDoc MP Imaging System. Fluorescence intensity signals were normalized to total lane protein using the Bio-rad Stain Free imaging (Posch et al., 2013).
The percentage of enzyme activity remaining was determined by comparing integrated band intensities or luminescence of inhibitor—with DMSO-treated samples for gel-based chemical proteomic or ADP-glo assays, respectively. For both chemical proteomic and ADP-glo methods, nonlinear regression analysis was used to determine the IC50 values from a dose-response curve generated using GraphPad Prism. Data are shown as mean±s.e.m. Determination of significance was performed by one-way ANOVA. All statistical analyses were performed using GraphPad Prism.

In test [2] the target is Zeta (DGK zeta) (Homo sapiens, UniProt Q13574). In words: DGK isoform % Activity screen. It counts as biochemical. The following applies: for activity at 1000 µM: read-out: 1 mM % Activity, Zeta.
Sequence of Zeta (DGK zeta) (Q13574 whole entry, canonical isoform): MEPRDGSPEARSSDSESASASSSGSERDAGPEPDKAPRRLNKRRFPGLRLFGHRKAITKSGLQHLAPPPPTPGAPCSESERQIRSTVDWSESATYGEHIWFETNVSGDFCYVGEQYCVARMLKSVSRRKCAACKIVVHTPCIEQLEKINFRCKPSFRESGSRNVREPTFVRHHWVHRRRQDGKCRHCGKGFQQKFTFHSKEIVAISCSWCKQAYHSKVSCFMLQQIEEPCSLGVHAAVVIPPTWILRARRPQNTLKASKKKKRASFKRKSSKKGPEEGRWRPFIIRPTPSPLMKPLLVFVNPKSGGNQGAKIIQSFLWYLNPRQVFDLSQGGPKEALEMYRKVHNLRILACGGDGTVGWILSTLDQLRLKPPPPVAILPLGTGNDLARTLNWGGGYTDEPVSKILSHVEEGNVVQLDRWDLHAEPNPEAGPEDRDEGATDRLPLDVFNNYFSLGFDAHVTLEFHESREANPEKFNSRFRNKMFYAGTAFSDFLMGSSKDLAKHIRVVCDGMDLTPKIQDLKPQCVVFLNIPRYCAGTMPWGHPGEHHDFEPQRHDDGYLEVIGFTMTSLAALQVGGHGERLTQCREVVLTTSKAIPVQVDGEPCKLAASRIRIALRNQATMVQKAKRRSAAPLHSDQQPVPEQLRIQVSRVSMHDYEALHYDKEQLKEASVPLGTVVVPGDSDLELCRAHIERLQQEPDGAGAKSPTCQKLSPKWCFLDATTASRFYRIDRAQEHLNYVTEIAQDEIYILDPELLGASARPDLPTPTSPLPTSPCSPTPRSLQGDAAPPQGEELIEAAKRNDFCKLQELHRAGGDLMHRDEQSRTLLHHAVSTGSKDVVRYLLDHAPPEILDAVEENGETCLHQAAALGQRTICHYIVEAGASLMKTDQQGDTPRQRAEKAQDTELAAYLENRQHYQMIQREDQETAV
Test [3] has as its target Gamma (DGK gamma) (Homo sapiens, UniProt P49619). Put plainly: DGK isoform % Activity screen. Format: biochemical. The following applies: for activity at 1000 µM: read-out: 1 mM % Activity, Gamma.
Test [4] deals with Alpha (DGK alpha; only in reference sheet cells) (Rattus norvegicus, UniProt P51556). Put plainly: DGK isoform % Activity screen. It counts as biochemical. Particulars: for activity at 100 µM: read-out: 100 uM % Activity (section without isoform head; Alpha); for activity at 1000 µM: read-out: 1 mM % Activity (section without isoform head; Alpha).
Sequence of Alpha (DGK alpha; only in reference sheet cells) (P51556 whole entry, canonical isoform): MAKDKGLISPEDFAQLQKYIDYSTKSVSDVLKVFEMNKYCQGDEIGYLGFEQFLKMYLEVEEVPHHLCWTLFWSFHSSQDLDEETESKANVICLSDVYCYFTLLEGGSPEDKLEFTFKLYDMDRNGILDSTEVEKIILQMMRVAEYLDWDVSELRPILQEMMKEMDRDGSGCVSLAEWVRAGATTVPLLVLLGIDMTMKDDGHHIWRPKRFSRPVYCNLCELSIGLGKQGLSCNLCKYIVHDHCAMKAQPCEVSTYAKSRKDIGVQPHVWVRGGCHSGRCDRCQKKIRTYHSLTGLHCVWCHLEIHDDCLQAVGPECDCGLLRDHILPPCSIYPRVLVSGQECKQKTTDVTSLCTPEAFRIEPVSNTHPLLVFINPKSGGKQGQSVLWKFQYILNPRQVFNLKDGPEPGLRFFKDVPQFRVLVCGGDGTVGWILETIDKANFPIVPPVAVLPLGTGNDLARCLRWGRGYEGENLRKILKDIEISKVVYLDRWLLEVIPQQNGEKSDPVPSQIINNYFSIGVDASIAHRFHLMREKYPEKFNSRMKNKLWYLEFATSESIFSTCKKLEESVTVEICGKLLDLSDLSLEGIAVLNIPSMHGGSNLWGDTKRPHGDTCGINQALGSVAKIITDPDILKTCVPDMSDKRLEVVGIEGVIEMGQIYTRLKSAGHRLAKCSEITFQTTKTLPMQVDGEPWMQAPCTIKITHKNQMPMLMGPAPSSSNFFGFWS

Sequence of Gamma (DGK gamma) (P49619 whole entry, canonical isoform): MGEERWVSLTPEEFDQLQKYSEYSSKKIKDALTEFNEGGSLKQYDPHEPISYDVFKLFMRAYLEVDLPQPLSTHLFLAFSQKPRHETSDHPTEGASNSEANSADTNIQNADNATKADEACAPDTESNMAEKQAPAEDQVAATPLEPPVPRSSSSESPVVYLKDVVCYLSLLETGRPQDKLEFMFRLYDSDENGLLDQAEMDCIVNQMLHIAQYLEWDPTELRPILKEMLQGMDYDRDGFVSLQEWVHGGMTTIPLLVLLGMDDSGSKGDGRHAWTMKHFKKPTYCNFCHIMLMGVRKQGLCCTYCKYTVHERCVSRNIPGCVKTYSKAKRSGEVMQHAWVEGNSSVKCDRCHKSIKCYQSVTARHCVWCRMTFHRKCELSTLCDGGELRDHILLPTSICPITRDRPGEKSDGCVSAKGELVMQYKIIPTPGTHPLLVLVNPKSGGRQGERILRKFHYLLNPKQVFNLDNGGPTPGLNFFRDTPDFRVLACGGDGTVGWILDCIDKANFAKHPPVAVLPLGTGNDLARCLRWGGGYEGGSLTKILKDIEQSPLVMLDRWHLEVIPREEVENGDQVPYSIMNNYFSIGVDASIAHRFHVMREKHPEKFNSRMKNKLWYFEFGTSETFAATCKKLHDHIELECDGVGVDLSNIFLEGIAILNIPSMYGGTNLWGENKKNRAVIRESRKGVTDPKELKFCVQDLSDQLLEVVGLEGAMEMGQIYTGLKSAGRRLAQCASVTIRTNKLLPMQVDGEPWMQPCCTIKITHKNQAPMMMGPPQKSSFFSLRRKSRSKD
T1 sequence (P51556 whole entry): as the sequence (P51556 whole entry, canonical isoform) above

Regarding `Cc1nc2sccn2c(=O)c1CCN1CCC(=C(c2ccccc2)c2ccc(F)cc2)CC1` [R59022], the “blockade of DGKα ATP probe labeling” value in test [1] was “blocked DGKα probe labeling”.
For the compound `O=c1c2ccccc2[nH]c(=S)n1CCN1CCC(=C(c2ccc(F)cc2)c2ccc(F)cc2)CC1` [R59949], the “blockade of DGKα ATP probe labeling” value in test [1] was “blocked DGKα probe labeling”.
With `Fc1ccc(C(c2ccc(F)cc2)N2CCNCC2)cc1` [TH001], the results for the activity at 100 µM in test [2], in test [3] and in test [4] were 102%, 99% and 72%, respectively. Moreover, the activity at 1000 µM in test [2], in test [3] and in test [4] was 0% each time.
For `c1ccc2c(c1)-c1ccccc1C2N1CCNCC1` [TH002], the activity at 100 µM in test [2] worked out at 98%; in test [4] it was 84%. Further, the activity at 1000 µM in test [2] and in test [4] was 0% throughout.
For the compound `CN1C2CCC1CC(OC(c1ccccc1)c1ccccc1)C2` (stereo not drawn) [TH004], in test [2], the activity at 100 µM turned out to be 82% and the activity at 1000 µM is 21%.
With `CN(C)CCOc1ccc(/C(=C(/CCCl)c2ccccc2)c2ccccc2)cc1` [TH005], in test [2], the activity at 100 µM was determined as 86% and the activity at 1000 µM stood at 0%. Also, in test [4], the activity at 100 µM came to 103% and the activity at 1000 µM was 14%.
As to `Fc1ccc(C(c2ccc(F)cc2)C2CCNCC2)cc1` [TH010], in test [2], the activity at 100 µM worked out at 96% and the activity at 1000 µM is 30%. Besides, the activity at 1000 µM in test [4] was determined as 64%.
For the compound `c1ccc(C(=C2CCNCC2)c2ccccc2)cc1` [TH011], the activity at 100 µM in test [2] was 96%; in test [4], 78%. The activity at 1000 µM in test [2] and in test [4] was 0% in each case.
Consider `c1ccc(C(c2ccccc2)C2CCNCC2)cc1` [TH012], for which, in test [2], the activity at 100 µM stood at 99% and the activity at 1000 µM turned out to be 15%. In test [4], the activity at 1000 µM amounted to 41%.
Taken in the same sequence, the figures for `Fc1ccc(C(=C2CCCN(Cc3ccccc3)C2)c2ccc(F)cc2)cc1` [TH014] were 140%, 327% and 160%.
For `CC(=O)N1CCN(C(c2ccc(F)cc2)c2ccc(F)cc2)CC1` [TH016], in test [2], the activity at 100 µM was 98% and the activity at 1000 µM was determined as 108%. Also, in test [4], the activity at 1000 µM came to 139%.
With `Cc1ccc(C(=C2CCNCC2)c2ccc(C)cc2)cc1` [TH019], in test [2], the activity at 100 µM amounted to 103% and the activity at 1000 µM stood at 0%. Moreover, in test [4], the activity at 100 µM worked out at 92% and the activity at 1000 µM was determined as 1%.
For `Fc1ccc(C(c2ccc(F)cc2)N2CCN(Cc3ccc4ccccc4n3)CC2)cc1` [TH022] the same measures were 135%, 193%, 103% and 60%.
Taken in the same sequence, the figures for `Fc1ccc(C(c2ccc(F)cc2)N2CCN(C3CCNCC3)CC2)cc1` [TH024] were 72%, 0%, 84% and 3%.
Taken in the same sequence, the figures for `COc1ccc(C(=C2CCNCC2)c2ccc(OC)cc2)cc1` [TH025] were 103%, 0%, 79% and 4.4%.
In the case of `OC(c1ccc(F)cc1)(c1ccc(F)cc1)C1CCNCC1` [TH028], in test [2], the activity at 100 µM is 125% and the activity at 1000 µM came out at 0%. Moreover, in test [4], the activity at 100 µM turned out to be 96% and the activity at 1000 µM amounted to 0%.
For `Fc1ccc(C(=C2CCN(Cc3ccc4ccccc4n3)CC2)c2ccc(F)cc2)cc1` [TH029], in test [2], the activity at 100 µM was 169% and the activity at 1000 µM came to 252%. Besides, in test [4], the activity at 100 µM amounted to 125% and the activity at 1000 µM stood at 73%.
Consider `OCCN1CCN(C(c2ccc(F)cc2)c2ccc(F)cc2)CC1` [TH030], for which, in test [2], the activity at 100 µM was 91% and the activity at 1000 µM turned out to be 5%. In addition, in test [4], the activity at 100 µM worked out at 103% and the activity at 1000 µM came out at 36%.
For `OCCCN1CCN(C(c2ccc(F)cc2)c2ccc(F)cc2)CC1` [TH031] the same measures were 105%, 0%, 107% and 26%.
For `Fc1ccc(C(c2ccc(F)cc2)N2CCN(CCCN3CCCC3)CC2)cc1` [TH032] the same measures were 80%, 0%, 94% and 8%.
In the case of `Fc1ccc(C(c2ccc(F)cc2)N2CCN(CCCN3CCN(C(c4ccc(F)cc4)c4ccc(F)cc4)CC3)CC2)cc1` [TH033], the activity at 100 µM in test [2] amounted to 82%. In test [4], the activity at 100 µM stood at 72% and the activity at 1000 µM came to 4%.
On to `CS(=O)(=O)N1CCC(=C(c2ccc(F)cc2)c2ccc(F)cc2)CC1` [TH035], for which the activity at 100 µM in test [2] is 112%; in test [4], 88%. Further, the values for the activity at 1000 µM in test [2] and in test [4] were 100% and 40%, respectively.
For `CS(=O)(=O)N1CCN(C(c2ccc(F)cc2)c2ccc(F)cc2)CC1` [TH036] the same measures were 108%, 93%, 105% and 74%.
Regarding `OC(c1ccc(C(F)(F)F)cc1)(c1ccc(C(F)(F)F)cc1)C1CCNCC1` [TH039], the activity at 100 µM is 94% in test [2], 91% in test [3] and 81% in test [4]. The activity at 1000 µM in test [2] stood at 1%; in test [3], 1%; in test [4], 6%.
In the case of `Clc1ccc(C(=C2CCNCC2)c2ccc(Cl)cc2)cc1` [TH040], the results for the activity at 100 µM in test [2], in test [3] and in test [4] were 85%, 101% and 78%, respectively. The activity at 1000 µM in test [2] came to 0%; in test [3], 5%; in test [4], 4%.
